Values quoted from earlier work, collected in patent US8580317B2, “Compositions and methods for treating acne” (Revance Therapeutics, Inc., priority 2005, dated 2013).

Key:
[1] = system: propionibacterium acnes (P. Acnes); conditions: background statement
[2] = benzoyl peroxide topically applied

For `O=C(OOC(=O)c1ccccc1)c1ccccc1` [benzoyl peroxide], the “kills P. acnes compared with other medications” value [1] is listed as “better than any other medication on the market” and the “share of the population that experiences skin allergies” value [2] is listed as “about 10%”.
